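Interpolation was linear, between the two tested concentrations surrounding the appropriate level; five concentrations were tested over 48 hours in 96-well plates. The concentration for 50% growth inhibition is given as GI50. TGI denotes the concentration required for complete inhibition of growth.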
How the values were obtained:
Assay in all cases: inhibition of tumour cell growth, NCI panel, 48 h
[1] = system: A498 renal
[2] = system: A549 NSCLC
[3] = system: ACHN renal
[4] = system: CAKI-1 renal
[5] = system: CCRF-CEM leukemia
[6] = system: COLO 205 colon
[7] = system: DU-145 prostate
[8] = system: EKVX NSCLC
[9] = system: HCC-2998 colon
[10] = system: HCT-116 colon
[11] = system: HCT-15 colon
[12] = system: HL-60(TB) leukemia
[13] = system: HOP-62 NSCLC
[14] = system: HOP-92 NSCLC
[15] = system: HS 578T breast
[16] = system: HT29 colon
[17] = system: IGROV1 ovarian
[18] = system: K-562 leukemia
[19] = system: KM12 colon
[20] = system: LOX IMVI melanoma
[21] = system: M14 melanoma
[22] = system: MALME-3M melanoma
[23] = system: MCF7 breast
[24] = system: MDA-MB-231 breast
[25] = system: MDA-MB-435
[26] = system: MOLT-4 leukemia
[27] = system: NCI-H226 lung
[28] = system: NCI-H23 lung
[29] = system: NCI-H460 lung
[30] = system: NCI-H522 lung
[31] = system: NCI/ADR-RES ovarian
[32] = system: OVCAR-3 ovarian
[33] = system: OVCAR-4 ovarian
[34] = system: OVCAR-5 ovarian
[35] = system: OVCAR-8 ovarian
[36] = system: PC-3 prostate
[37] = system: RPMI-8226 leukemia
[38] = system: RXF 393 renal
[39] = system: SF-268 CNS
[40] = system: SF-295 CNS
[41] = system: SF-539 CNS
[42] = system: SK-MEL-2 melanoma
[43] = system: SK-MEL-28 melanoma
[44] = system: SK-MEL-5 melanoma
[45] = system: SN12C renal
[46] = system: SNB-19 CNS
[47] = system: SNB-75 CNS
[48] = system: SR leukemia
[49] = system: SW-620 colon
[50] = system: T-47D breast
[51] = system: TK-10 renal
[52] = system: U251 CNS
[53] = system: UACC-257 melanoma
[54] = system: UACC-62 melanoma
[55] = system: UO-31 renal
[56] = system: 786-0 renal
[57] = system: SK-OV-3 ovarian

## O=C(Nc1ccc(-n2cc(-c3ccncc3)c(-c3ccc(O)c(Cl)c3)n2)cc1)c1cc(C(F)(F)F)cc(C(F)(F)F)c1
[1]
  GI50: 14.1 µM
  TGI: > 25 µM
[2]
  GI50: 9.11 µM
  TGI: > 25 µM
[3]
  GI50: 8.41 µM
  TGI: > 25 µM
[4]
  GI50: 6.57 µM
  TGI: > 25 µM
[5]
  GI50: 4.09 µM
  TGI: 21.8 µM
[6]
  GI50: 10.8 µM
  TGI: > 25 µM
[7]
  GI50: 9.69 µM
  TGI: > 25 µM
[8]
  GI50: 11.1 µM
  TGI: > 25 µM
[9]
  GI50: 9.89 µM
  TGI: > 25 µM
[10]
  GI50: 6.24 µM
  TGI: > 25 µM
[11]
  GI50: 4.84 µM
  TGI: 15.5 µM
[12]
  GI50: 5.8 µM
  TGI: 18 µM
[13]
  GI50: 12.5 µM
  TGI: > 25 µM
[14]
  GI50: 1.04 µM
  TGI: 13.7 µM
[15]
  GI50: 6.1 µM
  TGI: > 25 µM
[16]
  GI50: 5.01 µM
  TGI: 13.4 µM
[17]
  GI50: 12.7 µM
  TGI: > 25 µM
[18]
  GI50: 4.75 µM
  TGI: > 25 µM
[19]
  GI50: 7.85 µM
  TGI: > 25 µM
[20]
  GI50: 5.59 µM
  TGI: > 25 µM
[21]
  GI50: 3.58 µM
  TGI: 9.58 µM
[22]
  GI50: 4.66 µM
  TGI: 16.7 µM
[23]
  GI50: 8.46 µM
  TGI: > 25 µM
[24]
  GI50: 2.92 µM
  TGI: 6.8 µM
[25]
  GI50: 5.79 µM
  TGI: > 25 µM
[26]
  GI50: 3.89 µM
  TGI: 15.5 µM
[27]
  GI50: > 25 µM
  TGI: > 25 µM
[28]
  GI50: 9.8 µM
  TGI: > 25 µM
[29]
  GI50: 7.23 µM
  TGI: > 25 µM
[30]
  GI50: 4.6 µM
  TGI: > 25 µM
[31]
  GI50: 11.1 µM
  TGI: > 25 µM
[32]
  GI50: 7.42 µM
  TGI: > 25 µM
[33]
  GI50: 8.12 µM
  TGI: > 25 µM
[34]
  GI50: 9.18 µM
  TGI: > 25 µM
[35]
  GI50: 11.8 µM
  TGI: > 25 µM
[36]
  GI50: 5.02 µM
  TGI: > 25 µM
[37]
  GI50: 2.34 µM
  TGI: 13.5 µM
[38]
  GI50: 3.1 µM
  TGI: 6.58 µM
[39]
  GI50: 9.33 µM
  TGI: > 25 µM
[40]
  GI50: 4.71 µM
  TGI: 15 µM
[41]
  GI50: 3.57 µM
  TGI: 12.9 µM
[42]
  GI50: 5.08 µM
  TGI: 12.7 µM
[43]
  GI50: 6.07 µM
  TGI: 23.3 µM
[44]
  GI50: 5.68 µM
  TGI: 19 µM
[45]
  GI50: 8.93 µM
  TGI: > 25 µM
[46]
  GI50: 11.9 µM
  TGI: > 25 µM
[47]
  GI50: 3.73 µM
  TGI: > 25 µM
[48]
  GI50: 8.79 µM
  TGI: > 25 µM
[49]
  GI50: 11.1 µM
  TGI: > 25 µM
[50]
  GI50: 12.2 µM
  TGI: > 25 µM
[51]
  GI50: 5.87 µM
  TGI: > 25 µM
[52]
  GI50: 4.55 µM
  TGI: > 25 µM
[53]
  GI50: 14.7 µM
  TGI: > 25 µM
[54]
  GI50: 5.35 µM
  TGI: 12.9 µM
[55]
  GI50: 5.3 µM
  TGI: > 25 µM

## Fc1c(F)c(F)c2c(c1F)CSc1nc3ccccc3n1-2
[56]
  TGI: > 100 µM
[1]
  TGI: > 100 µM
[2]
  TGI: > 100 µM
[3]
  TGI: > 100 µM
[4]
  TGI: > 100 µM
[5]
  TGI: > 100 µM
[6]
  TGI: > 100 µM
[7]
  TGI: > 100 µM
[8]
  TGI: > 100 µM
[9]
  TGI: > 100 µM
[10]
  TGI: > 100 µM
[11]
  TGI: > 100 µM
[12]
  TGI: > 100 µM
[13]
  TGI: > 100 µM
[14]
  TGI: > 100 µM
[15]
  TGI: > 100 µM
[16]
  TGI: > 100 µM
[17]
  TGI: > 100 µM
[18]
  TGI: > 100 µM
[19]
  TGI: > 100 µM
[20]
  TGI: > 100 µM
[21]
  TGI: > 100 µM
[22]
  TGI: > 100 µM
[23]
  TGI: > 100 µM
[24]
  TGI: > 100 µM
[25]
  TGI: > 100 µM
[26]
  TGI: > 100 µM
[27]
  TGI: > 100 µM
[28]
  TGI: > 100 µM
[29]
  TGI: > 100 µM
[30]
  TGI: > 100 µM
[31]
  TGI: > 100 µM
[32]
  TGI: > 100 µM
[33]
  TGI: > 100 µM
[34]
  TGI: > 100 µM
[35]
  TGI: > 100 µM
[36]
  TGI: > 100 µM
[37]
  TGI: > 100 µM
[38]
  TGI: > 100 µM
[39]
  TGI: > 100 µM
[40]
  TGI: > 100 µM
[41]
  TGI: > 100 µM
[42]
  TGI: > 100 µM
[43]
  TGI: > 100 µM
[44]
  TGI: > 100 µM
[57]
  TGI: > 100 µM
[45]
  TGI: > 100 µM
[46]
  TGI: > 100 µM
[47]
  TGI: > 100 µM
[48]
  TGI: > 100 µM
[49]
  TGI: > 100 µM
[50]
  TGI: > 100 µM
[51]
  TGI: > 100 µM
[52]
  TGI: > 100 µM
[53]
  TGI: > 100 µM
[54]
  TGI: > 100 µM

— PubChem BioAssay (NCI)
